According to patent publication US20150335547A1, “ORAL CARE COMPOSITION CONTAINING IONIC LIQUIDS” (priority 2012, published 2015):

Tested on: biofilm
Assay: biofilm removal by ionic liquids (training set for QSFR model)
Format: cell-based
Details: where two values were available (MMPZ MeSO4, EMIM Tosylate) the value obtained at the higher pH
Text: The process of QSFR model building involves assembling a dataset with experimental results and molecular structures, descriptor calculation and contingency analysis followed by model generation and validations. Ionic liquids with biofilm removal data served as a data set for model generation. The details of the dataset are shown in Table 1 (ID and biofilm removal data for ionic liquids selected for model generation (training set).

Row | Compound | % removal of biofilm
1 | 1,2,3-trimethylimidazolium methyl sulfate [TMIM MeSO4] | 51.8%
2 | 1-ethyl-3-methylimidazolium ethylsulphate [EMIM Ethyl SO4] | 48.1%
3 | C=CCn1cc[n+](C)c1.[Cl-] [AMIM Cl, 1-allyl-3-methylimidazolium (AMIM) chloride] | 44.8%
4 | CCCCn1cc[n+](C)c1.[Br-] [BMIM Br, BMIM bromide (Br)] | 48.0%
5 | CCCCn1cc[n+](C)c1.[Cl-] [BMIM Cl, 1-butyl-3-methylimidazolium (BMIM) chloride (Cl)] | 43.8%
6 | CCCCn1cc[n+](C)c1.COS(=O)(=O)[O-] [BMIM MeSO4, BMIM methyl sulfate] | 53.9%
7 | CCCCCCCCOS(=O)(=O)[O-].CCCCn1cc[n+](C)c1 [BMIM Octyl SO4, BMIM octyl sulfate] | 58.6%
8 | CC(=O)[O-].CCCCn1cc[n+](C)c1 [BMIMOAc, BMIM acetate (OAc)] | 55.9%
9 | CCCCCCCCCCn1cc[n+](C)c1.[Cl-] [DMIM CL, 1-decyl-3-methylimidazolium (DMIM) chloride] | 57.3%
10 | CCn1cc[n+](C)c1.[Br-] [EMIM Br, EMIM bromide (Br)] | 48.6%
11 | CCn1cc[n+](C)c1.[Cl-] [EMIM Cl, 1-ethyl-3-methylimidazolium (EMIM) chloride (Cl)] | 44.3%
12 | CCn1cc[n+](C)c1.Cc1ccc(S(=O)(=O)[O-])cc1 [EMIM Tosylate, EMIM tosylate] | 59.5%
13 | CCOP(=O)([O-])OCC.CCn1cc[n+](C)c1 [EMIM diethyl PO4, EMIM diethyl phosphate] | 52.7%
14 | COS(=O)(=O)[O-].Cc1cn(C)[n+](C)c1 [MMMPz MeSO4, 1,2,4-trimethylpyrazolium (MMMPZ) methyl sulfate] | 57.8%
15 | Tris(2-hydroxyethyl)methylammonium methylsulphate [MTEOA MeSO4] | 52.8%
